Values of other authors, collected in patent US20240226212A1, “GENOMIC SEQUENCES FOR YEAST PROBIOTICS” (Worcester Polytechnic Institute, priority 2023, published 2024).

System: C. albicans

Structure (SMILES): OCCc1c[nH]c2ccccc12 [tryptophol]
- filamentation of C. albicans: shown to inhibit filamentation
